Data from ChEMBL document CHEMBL1140833, “Potent heteroarylpiperidine and carboxyphenylpiperidine 1-alkyl-cyclopentane carboxamide CCR2 antagonists” (Bioorg Med Chem Lett, 2008).
pIC50: −log10 of the molar value.

What was measured:
[1] = molecular target: C-C chemokine receptor type 2 (Homo sapiens, UniProt P41597); assay: Displacement of [125I]MCP1 from CCR2 receptor in human monocytes; type: cell-based
[2] = molecular target: Voltage-gated inwardly rectifying potassium channel KCNH2 (Homo sapiens, UniProt Q12809); assay: Displacement of [[…]]MK499 from human ERG expressed in HEK cells; type: cell-based, HEK293
Sequence of Voltage-gated inwardly rectifying potassium channel KCNH2 (Q12809 whole entry): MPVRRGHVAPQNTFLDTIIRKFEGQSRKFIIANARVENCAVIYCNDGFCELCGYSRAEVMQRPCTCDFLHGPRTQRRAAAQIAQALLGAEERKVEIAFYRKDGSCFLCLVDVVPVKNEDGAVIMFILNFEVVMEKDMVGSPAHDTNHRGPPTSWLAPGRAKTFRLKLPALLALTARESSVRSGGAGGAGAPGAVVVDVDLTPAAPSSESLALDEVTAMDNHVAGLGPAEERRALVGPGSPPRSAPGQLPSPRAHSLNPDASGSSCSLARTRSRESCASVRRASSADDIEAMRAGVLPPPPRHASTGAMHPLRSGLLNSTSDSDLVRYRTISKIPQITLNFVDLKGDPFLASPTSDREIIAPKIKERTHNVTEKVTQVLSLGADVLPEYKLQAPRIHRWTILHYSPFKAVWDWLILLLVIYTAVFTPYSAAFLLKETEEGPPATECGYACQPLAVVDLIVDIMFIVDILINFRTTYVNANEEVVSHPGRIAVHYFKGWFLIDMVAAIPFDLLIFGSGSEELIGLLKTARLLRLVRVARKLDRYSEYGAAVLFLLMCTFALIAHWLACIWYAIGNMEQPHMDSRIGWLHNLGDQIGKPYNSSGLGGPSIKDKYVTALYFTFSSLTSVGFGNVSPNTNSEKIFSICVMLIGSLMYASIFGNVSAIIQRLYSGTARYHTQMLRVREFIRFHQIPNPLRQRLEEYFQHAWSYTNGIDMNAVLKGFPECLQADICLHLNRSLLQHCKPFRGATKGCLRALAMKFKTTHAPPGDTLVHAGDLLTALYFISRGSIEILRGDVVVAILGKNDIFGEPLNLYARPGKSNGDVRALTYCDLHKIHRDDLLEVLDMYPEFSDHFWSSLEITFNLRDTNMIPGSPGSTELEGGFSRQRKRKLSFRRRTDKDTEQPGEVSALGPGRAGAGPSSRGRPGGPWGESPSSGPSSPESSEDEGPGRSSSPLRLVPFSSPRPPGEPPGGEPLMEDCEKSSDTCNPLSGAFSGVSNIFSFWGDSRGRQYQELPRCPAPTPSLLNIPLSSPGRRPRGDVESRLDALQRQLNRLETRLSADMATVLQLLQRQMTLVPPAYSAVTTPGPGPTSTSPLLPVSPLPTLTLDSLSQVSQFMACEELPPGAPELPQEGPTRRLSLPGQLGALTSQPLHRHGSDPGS

[3] = Selectivity for human CCR2 over IKr
[4] = molecular target: C-C chemokine receptor type 5 (Homo sapiens) (UniProt P51681); assay: Inhibition of CCR5 at 1 uM; design: scale not given: the % may be the effect or the level left
Sequence of C-C chemokine receptor type 5 (Homo sapiens) (P51681 whole entry, looked up): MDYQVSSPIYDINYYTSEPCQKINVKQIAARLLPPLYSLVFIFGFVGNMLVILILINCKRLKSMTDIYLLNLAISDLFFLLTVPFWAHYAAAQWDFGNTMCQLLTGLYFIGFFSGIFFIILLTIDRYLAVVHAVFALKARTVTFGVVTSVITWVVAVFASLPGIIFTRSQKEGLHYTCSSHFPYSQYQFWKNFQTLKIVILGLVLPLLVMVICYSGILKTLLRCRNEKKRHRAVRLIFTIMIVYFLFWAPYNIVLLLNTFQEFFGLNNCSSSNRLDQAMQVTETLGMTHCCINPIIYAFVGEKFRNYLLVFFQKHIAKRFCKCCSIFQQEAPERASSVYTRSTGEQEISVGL

[5] = Oral bioavailability in rat at 3 mg/kg; type: ADME, organism-based; conditions: in vivo
[6] = Clearance in rat at 3 mg/kg, po; type: ADME, organism-based; design: dose 3 mg/kg, route oral; conditions: in vivo
[7] = Half life in rat at 3 mg/kg, po; type: ADME, organism-based; design: dose 3 mg/kg, route oral; conditions: in vivo

Sequence of C-C chemokine receptor type 2 (P41597 whole entry): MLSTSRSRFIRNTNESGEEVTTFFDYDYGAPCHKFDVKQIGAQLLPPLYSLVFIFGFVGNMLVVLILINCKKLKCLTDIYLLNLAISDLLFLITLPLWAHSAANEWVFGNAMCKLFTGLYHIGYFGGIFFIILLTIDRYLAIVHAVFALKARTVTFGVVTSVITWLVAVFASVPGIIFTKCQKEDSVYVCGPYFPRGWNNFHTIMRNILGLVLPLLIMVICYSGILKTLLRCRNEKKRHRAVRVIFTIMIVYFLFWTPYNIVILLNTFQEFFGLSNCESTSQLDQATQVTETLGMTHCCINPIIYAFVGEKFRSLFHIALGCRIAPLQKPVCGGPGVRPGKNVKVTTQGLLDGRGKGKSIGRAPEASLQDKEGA

Row | SMILES | pIC50 [1] | pIC50 [2] | IKr IC50/CCR2 IC50 ratio [3] | also measured
1 | CC(C)[C@]1(C(=O)NCc2cc(C(F)(F)F)cc(C(F)(F)F)c2)CC[C@@H](N2CCC(c3cccc(C(=O)O)c3)CC2)C1 | 7.21 | 5.56 | 45 | 
2 | COc1cccc(C2CCN([C@@H]3CC[C@@](C(=O)NCc4cc(C(F)(F)F)cc(C(F)(F)F)c4)(C(C)C)C3)CC2)c1 (single isomer, unassigned) | 8.22 | 6.66 | 36 | 
3 | CC(C)[C@]1(C(=O)NCc2cc(C(F)(F)F)cc(C(F)(F)F)c2)CC[C@@H](N2CCC(c3cccc(C(=O)O)c3)CC2)C1 (single isomer, unassigned) | 7.39 | 6.22 | 15 | 
4 | CC(C)[C@]1(C(=O)NCc2cc(C(F)(F)F)cc(C(F)(F)F)c2)CC[C@@H](N2CCC(c3ccnnc3)CC2)C1 (single isomer, unassigned) | 7.19 |  |  | 
5 | CC(C)[C@]1(C(=O)NCc2cc(C(F)(F)F)cc(C(F)(F)F)c2)CC[C@@H](N2CCC(c3ccc(Cl)nn3)CC2)C1 (single isomer, unassigned) | 6.78 |  |  | 
6 | CC(C)[C@]1(C(=O)NCc2cc(C(F)(F)F)cc(C(F)(F)F)c2)CC[C@@H](N2CCC(c3cccnc3)CC2)C1 (relative stereo) | 8.22 |  |  | 
7 | CC(C)[C@]1(C(=O)NCc2cc(C(F)(F)F)cc(C(F)(F)F)c2)CC[C@@H](N2CCC(c3cncnc3)CC2)C1 [listing 1 of 2 here] |  |  |  | Activity [4]: 3%
8 | CC(C)(O)[C@]1(C(=O)NCc2cc(C(F)(F)F)cc(C(F)(F)F)c2)CC[C@@H](N2CCC(c3ccc(F)cc3)CC2)C1 | 8.89 | 7.27 | 42 | Activity [4]: 69%
9 | CC(C)[C@]1(C(=O)NCc2cc(C(F)(F)F)cc(C(F)(F)F)c2)CC[C@@H](N2CCC(c3ccncn3)CC2)C1 (single isomer, unassigned) | 7.36 | 6.89 | 3 | 
10 | CC(C)[C@]1(C(=O)NCc2cc(C(F)(F)F)cc(C(F)(F)F)c2)CC[C@@H](N2CCC(c3ccc(F)cc3)CC2)C1 | 8.52 | 7.80 | 5 | Activity [4]: 69%
11 | CC(C)(O)[C@]1(C(=O)NCc2cc(C(F)(F)F)cc(C(F)(F)F)c2)CC[C@@H](N2CCC(c3cncnc3)CC2)C1 | 8.22 |  |  | Activity [4]: 3%
12 | CC(C)[C@]1(C(=O)NCc2cc(C(F)(F)F)cc(C(F)(F)F)c2)CC[C@@H](N2CCC(c3cncnc3)CC2)C1 (relative stereo) | 7.92 |  |  | bioavailability [5]: 33%; CL/F [6]: 7 mL/min/kg; half-life [7]: 228 min
13 | CC(C)[C@]1(C(=O)NCc2cc(C(F)(F)F)cc(C(F)(F)F)c2)CC[C@@H](N2CCC(c3cncnc3)CC2)C1 [listing 2 of 2 here] | 8.30 |  |  | 
14 | CC(C)[C@]1(C(=O)NCc2cc(C(F)(F)F)cc(C(F)(F)F)c2)CC[C@@H](N2CCC(c3ncccn3)CC2)C1 (single isomer, unassigned) | 6.84 |  |  | 
15 | CC(C)[C@]1(C(=O)NCc2cc(C(F)(F)F)cc(C(F)(F)F)c2)CC[C@@H](N2CCC(c3cccc(O)c3)CC2)C1 (single isomer, unassigned) | 8.22 | 7.17 | 11 | 
16 | CC(C)[C@]1(C(=O)NCc2cc(C(F)(F)F)cc(C(F)(F)F)c2)CC[C@@H](N2CCC(c3cccc(F)c3)CC2)C1 (single isomer, unassigned) | 8.40 |  |  | 
17 | CC(C)[C@]1(C(=O)NCc2cc(C(F)(F)F)cc(C(F)(F)F)c2)CC[C@@H](N2CCC(c3cccnn3)CC2)C1 (single isomer, unassigned) | 7.30 |  |  | 
